Test system: edema of both feet of SD-rats
Assay: Edema suppression in rheumatic arthritis model (heat-killed Mycobacterium injected into right sole)
Format: in vivo
Conditions: 4 mg/day; about 20 days after injection
Description: At about 20 days after injection of 0.6 mg/kg heat-killed 5. Mycobacterium histolyticm to the right sole of the feet of SD-rats, the degree of inhibition against inflammation was investigated by measuring the size of edema of both feet. The rats were divided into 7 groups and examined; feed group (group A) as a control group, not being caused edema, group B which was fed with 4 mg/day of predisolone as edema suppression agents, group C which was fed with 160 mg/day of ordinary platycodon extract, group D which was fed with 20 mg/day of 14 kinds of herbal medicine extract, group E which was fed with 160 mg/day of the old platycodon extract, group F which was fed with 40 mg/day of herbal medicine extract and 160 mg/day of the old platycodon extract. Each group was assigned to have 6 SD-rats.

For C[C@]12C=CC(=O)C=C1CC[C@@H]1[C@@H]2[C@@H](O)C[C@@]2(C)[C@H]1CC[C@]2(O)C(=O)CO [predisolone], the “Edema suppression activity in the left foot” value was 83.8% and the “Edema suppression activity in the right foot” value was 84.5%.

— US6902748B1, “Medicines manufactured from old platycodon extracts” (Jang Saeng Doraji Co., Ltd, priority 1999, dated 2005)
